Data as given in PubChem BioAssay AID2060611 (Molecular Pharmacology Branch, DTP, NCI, 2025).
Where “and” joins values, the source holds several entries; their conditions need not be identical. Equal values may be shown once.

Test system: 628569-122-R-J1-PDC complex spheroid viability
Assay: Anticancer human tumor 628569-122-R-J1-PDC patient-derived head and neck squamous carcinoma cell line growth inhibition [CLK]
Settings: for viability, T/C: stronger effect = lower value
Procedure, shortened: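 Patient-derived tumor cells grown as complex spheroids with HUVEC endothelial cells and mesenchymal stem cells, treated with drug combinations. Concentrations descend in half-log steps from near clinical Cmax, or from 10 microM if Cmax unknown.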

[1] = curve of first compound, second compound 0.0316 µM
[2] = curve of first compound, second compound 0.1 µM
[3] = curve of first compound, second compound 0.316 µM
[4] = curve of first compound, second compound 1 µM
[5] = curve of first compound, second compound 3.16 µM
[6] = curve of first compound, second compound 10 µM
[7] = second compound 0.0316 µM, first compound 0.0316 µM
[8] = second compound 0.0316 µM, first compound 0.1 µM
[9] = second compound 0.0316 µM, first compound 0.316 µM
[10] = second compound 0.0316 µM, first compound 1 µM
[11] = second compound 0.0316 µM, first compound 3.16 µM
[12] = second compound 0.0316 µM, first compound 10 µM
[13] = second compound 0.1 µM, first compound 0.0316 µM
[14] = second compound 0.1 µM, first compound 0.1 µM
[15] = second compound 0.1 µM, first compound 0.316 µM
[16] = second compound 0.1 µM, first compound 1 µM
[17] = second compound 0.1 µM, first compound 3.16 µM
[18] = second compound 0.1 µM, first compound 10 µM
[19] = second compound 0.316 µM, first compound 0.0316 µM
[20] = second compound 0.316 µM, first compound 0.1 µM
[21] = second compound 0.316 µM, first compound 0.316 µM
[22] = second compound 0.316 µM, first compound 1 µM
[23] = second compound 0.316 µM, first compound 3.16 µM
[24] = second compound 0.316 µM, first compound 10 µM
[25] = second compound 1 µM, first compound 0.0316 µM
[26] = second compound 1 µM, first compound 0.1 µM
[27] = second compound 1 µM, first compound 0.316 µM
[28] = second compound 1 µM, first compound 1 µM
[29] = second compound 1 µM, first compound 3.16 µM
[30] = second compound 1 µM, first compound 10 µM
[31] = second compound 3.16 µM, first compound 0.0316 µM
[32] = second compound 3.16 µM, first compound 0.1 µM
[33] = second compound 3.16 µM, first compound 0.316 µM
[34] = second compound 3.16 µM, first compound 1 µM
[35] = second compound 3.16 µM, first compound 3.16 µM
[36] = second compound 3.16 µM, first compound 10 µM
[37] = second compound 10 µM, first compound 0.0316 µM
[38] = second compound 10 µM, first compound 0.1 µM
[39] = second compound 10 µM, first compound 0.316 µM
[40] = second compound 10 µM, first compound 1 µM
[41] = second compound 10 µM, first compound 3.16 µM
[42] = second compound 10 µM, first compound 10 µM
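Also: spheroids exposed to agents for seven days before readout.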
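For viability, T/C in this document: 100% = DMSO vehicle control viability.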

CC1(C)CCC(CN2CCN(c3ccc(C(=O)NS(=O)(=O)c4ccc(NCC5CCOCC5)c([N+](=O)[O-])c4)c(Oc4cnc5[nH]ccc5c4)c3)CC2)=C(c2ccc(Cl)cc2)C1 + CN1CCN(c2cc(C(=O)Nc3cc4cc(-c5cnn(C)c5)ccc4cn3)ccn2)CC1
IC50 [1]: > 10000 nM
IC50 [2]: > 10000 nM
IC50 [3]: < 31.6 nM
IC50 [4]: < 31.6 nM
IC50 [5]: < 31.6 nM
IC50 [6]: < 31.6 nM
viability, T/C [7]: 94%
viability, T/C [8]: 105%
viability, T/C [9]: 103%
viability, T/C [10]: 96%
viability, T/C [11]: 97%
viability, T/C [12]: 85.6%
viability, T/C [13]: 70.8%
viability, T/C [14]: 63.6%
viability, T/C [15]: 78.5%
viability, T/C [16]: 67.7%
viability, T/C [17]: 71.1%
viability, T/C [18]: 69.5%
viability, T/C [19]: 36.1%
viability, T/C [20]: 29.7%
viability, T/C [21]: 41.3%
viability, T/C [22]: 36%
viability, T/C [23]: 28.4%
viability, T/C [24]: 22.4%
viability, T/C [25]: 10.8%
viability, T/C [26]: 13.3%
viability, T/C [27]: 5.93%
viability, T/C [28]: 9.88%
viability, T/C [29]: 10.1%
viability, T/C [30]: 3.58%
viability, T/C [31]: 8.81%
viability, T/C [32]: 8.56%
viability, T/C [33]: 6.4%
viability, T/C [34]: 7.84%
viability, T/C [35]: 8.73%
viability, T/C [36]: 3.29%
viability, T/C [37]: 7.98%
viability, T/C [38]: 2.99%
viability, T/C [39]: 4.03%
viability, T/C [40]: 8.3%
viability, T/C [41]: 3.6%
viability, T/C [42]: 0.85%

O=C(c1cc(Cc2n[nH]c(=O)c3ccccc23)ccc1F)N1CCN(C(=O)C2CC2)CC1 + CN1CCN(c2cc(C(=O)Nc3cc4cc(-c5cnn(C)c5)ccc4cn3)ccn2)CC1
IC50 [1]: 6760 nM
IC50 [2]: 1210 nM
IC50 [3]: < 31.6 nM
IC50 [4]: < 31.6 nM
IC50 [5]: < 31.6 nM
IC50 [6]: < 31.6 nM
viability, T/C [7]: 91.9%
viability, T/C [8]: 89.5%
viability, T/C [9]: 91.2%
viability, T/C [10]: 83.3%
viability, T/C [11]: 56.8%
viability, T/C [12]: 46.5%
viability, T/C [13]: 55.8%
viability, T/C [14]: 56.6%
viability, T/C [15]: 61.9%
viability, T/C [16]: 49.8%
viability, T/C [17]: 41.5%
viability, T/C [18]: 33.7%
viability, T/C [19]: 34.6%
viability, T/C [20]: 33.6%
viability, T/C [21]: 33.9%
viability, T/C [22]: 27.7%
viability, T/C [23]: 16.8%
viability, T/C [24]: 14.2%
viability, T/C [25]: 9.74%
viability, T/C [26]: 5.97%
viability, T/C [27]: 9.24%
viability, T/C [28]: 5%
viability, T/C [29]: 8.27%
viability, T/C [30]: 8.76%
viability, T/C [31]: 6.83%
viability, T/C [32]: 7.39%
viability, T/C [33]: 8.5%
viability, T/C [34]: 5.51%
viability, T/C [35]: 6.5%
viability, T/C [36]: 8.04%
viability, T/C [37]: 3.42%
viability, T/C [38]: 3.07%
viability, T/C [39]: 1.85%
viability, T/C [40]: 3.59%
viability, T/C [41]: 3.68%
viability, T/C [42]: 2.67%

CC(Nc1ccc2c(c1)OCCn1cc(N3C(=O)OCC3C(F)F)nc1-2)C(N)=O (stereo unspecified)
viability, T/C (compound 0.0316 µM): 66.2% and 56.2%
viability, T/C (compound 0.1 µM): 68.1% and 60.1%
viability, T/C (compound 0.316 µM): 39.3% and 46.8%
viability, T/C (compound 1 µM): 40.2% and 37.5%
viability, T/C (compound 3.16 µM): 32% and 39.5%
viability, T/C (compound 10 µM): 18.5% and 29.7%
IC50 (curve of compound): 279 nM and 217 nM
